# Ends that are not written are not given here.
# Assays:
# [1] = Electronic tongue analysis (Taste-Sensing System SA 402B); design: unit not given here; details: reference solution 30 mM KCl + 0.3 mM tartaric acid as baseline, first measurement excluded; for Umami: sensor AAE; for Umami / Bitter / Sweet: detection threshold 0, room temperature; for Umami / Bitter / Sour / Salty: four replicates; for Sour: detection threshold -13, room temperature; for Salty: detection threshold -6, room temperature; for Sweet: measured five times
# Procedure, shortened: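 Room-temperature electronic-tongue readings with five taste probes, calibrated against a reference of 30 mM KCl and 0.3 mM tartaric acid. Samples at 0.1 mg/mL and 1.0 mg/mL were measured four times, sweetness five times, and the first run was dropped. Detection cut-offs were sour −13, salty −6, others 0.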
# [2] = system: human bronchial epithelial cells (BEAS-2B)
# [3] = system: human embryonic kidney cells (HEK293T)
# [4] = system: human pancreatic ductal epithelial cells (HPNE)
# [5] = system: human umbilical vein endothelial cells (HUVEC)
substance,measurement,setting,value
HGGDDLG [TaPep28],Umami,[1]; peptide 0.1 mg/mL,1.08
same,Umami,[1]; peptide 1 mg/mL,-5.39
same,Bitter,"[1]; sensor C00, peptide 0.1 mg/mL",7.58
same,Bitter,"[1]; sensor C00, peptide 1 mg/mL",4.00
same,Sour,"[1]; sensor CA0, peptide 0.1 mg/mL",-2.05
same,Sour,"[1]; sensor CA0, peptide 1 mg/mL",13.70
same,Salty,"[1]; sensor CT0, peptide 0.1 mg/mL",-21.08
same,Salty,"[1]; sensor CT0, peptide 1 mg/mL",11.23
same,Sweet,"[1]; sensor GL1, peptide 0.1 mg/mL",3.25
same,Sweet,"[1]; sensor GL1, peptide 1 mg/mL",-6.08
same,"Average cell viability, BEAS-2B",[2],108.84
same,"Cell viability, BEAS-2B, Data1",[2],111.86
same,"Cell viability, BEAS-2B, Data2",[2],106.08
same,"Cell viability, BEAS-2B, Data3",[2],108.57
same,"Average cell viability, HEK293T",[3],97.67
same,"Cell viability, HEK293T, Data1",[3],96.62
same,"Cell viability, HEK293T, Data2",[3],99.75
same,"Cell viability, HEK293T, Data3",[3],96.62
same,"Average cell viability, HPNE",[4],100.10
same,"Cell viability, HPNE, Data1",[4],100.63
same,"Cell viability, HPNE, Data2",[4],102.04
same,"Cell viability, HPNE, Data3",[4],97.63
same,"Average cell viability, HUVEC",[5],104.66
same,"Cell viability, HUVEC, Data1",[5],105.77
same,"Cell viability, HUVEC, Data2",[5],106.73
same,"Cell viability, HUVEC, Data3",[5],101.46
HIDELDE [TaPep22],Umami,[1]; peptide 0.1 mg/mL,2.56
same,Umami,[1]; peptide 1 mg/mL,-3.68
same,Bitter,"[1]; sensor C00, peptide 0.1 mg/mL",6.91
same,Bitter,"[1]; sensor C00, peptide 1 mg/mL",3.37
same,Sour,"[1]; sensor CA0, peptide 0.1 mg/mL",-5.65
same,Sour,"[1]; sensor CA0, peptide 1 mg/mL",9.43
same,Salty,"[1]; sensor CT0, peptide 0.1 mg/mL",-22.87
same,Salty,"[1]; sensor CT0, peptide 1 mg/mL",7.21
same,Sweet,"[1]; sensor GL1, peptide 0.1 mg/mL",7.18
same,Sweet,"[1]; sensor GL1, peptide 1 mg/mL",-4.86
same,"Average cell viability, BEAS-2B",[2],111.67
same,"Cell viability, BEAS-2B, Data1",[2],106.78
same,"Cell viability, BEAS-2B, Data2",[2],113.26
same,"Cell viability, BEAS-2B, Data3",[2],114.96
same,"Average cell viability, HEK293T",[3],98.23
same,"Cell viability, HEK293T, Data1",[3],106.09
same,"Cell viability, HEK293T, Data2",[3],94.35
same,"Cell viability, HEK293T, Data3",[3],94.26
same,"Average cell viability, HPNE",[4],95.67
same,"Cell viability, HPNE, Data1",[4],103.83
same,"Cell viability, HPNE, Data2",[4],84.66
same,"Cell viability, HPNE, Data3",[4],98.54
same,"Average cell viability, HUVEC",[5],101.94
same,"Cell viability, HUVEC, Data1",[5],90.69
same,"Cell viability, HUVEC, Data2",[5],106.97
same,"Cell viability, HUVEC, Data3",[5],108.17
IAVPHEP [TaPep47],Umami,[1]; peptide 0.1 mg/mL,2.32
same,Umami,[1]; peptide 1 mg/mL,-4.54
same,Bitter,"[1]; sensor C00, peptide 0.1 mg/mL",8.00
same,Bitter,"[1]; sensor C00, peptide 1 mg/mL",3.37
same,Sour,"[1]; sensor CA0, peptide 0.1 mg/mL",-4.89
same,Sour,"[1]; sensor CA0, peptide 1 mg/mL",10.97
same,Salty,"[1]; sensor CT0, peptide 0.1 mg/mL",-19.15
same,Salty,"[1]; sensor CT0, peptide 1 mg/mL",9.73
same,Sweet,"[1]; sensor GL1, peptide 0.1 mg/mL",6.95
same,Sweet,"[1]; sensor GL1, peptide 1 mg/mL",-5.60
same,"Average cell viability, BEAS-2B",[2],106.38
same,"Cell viability, BEAS-2B, Data1",[2],109.97
same,"Cell viability, BEAS-2B, Data2",[2],99.00
same,"Cell viability, BEAS-2B, Data3",[2],110.17
same,"Average cell viability, HEK293T",[3],100.09
same,"Cell viability, HEK293T, Data1",[3],104.67
same,"Cell viability, HEK293T, Data2",[3],100.41
same,"Cell viability, HEK293T, Data3",[3],95.21
same,"Average cell viability, HPNE",[4],99.80
same,"Cell viability, HPNE, Data1",[4],107.02
same,"Cell viability, HPNE, Data2",[4],87.25
same,"Cell viability, HPNE, Data3",[4],105.12
same,"Average cell viability, HUVEC",[5],101.12
same,"Cell viability, HUVEC, Data1",[5],101.62
same,"Cell viability, HUVEC, Data2",[5],112.48
same,"Cell viability, HUVEC, Data3",[5],89.25
IFGDD [TaPep57],Umami,[1]; peptide 0.1 mg/mL,1.71
same,Umami,[1]; peptide 1 mg/mL,-5.02
same,Bitter,"[1]; sensor C00, peptide 0.1 mg/mL",7.29
same,Bitter,"[1]; sensor C00, peptide 1 mg/mL",3.08
same,Sour,"[1]; sensor CA0, peptide 0.1 mg/mL",-3.54
same,Sour,"[1]; sensor CA0, peptide 1 mg/mL",12.57
same,Salty,"[1]; sensor CT0, peptide 0.1 mg/mL",-21.64
same,Salty,"[1]; sensor CT0, peptide 1 mg/mL",9.94
same,Sweet,"[1]; sensor GL1, peptide 0.1 mg/mL",6.75
same,Sweet,"[1]; sensor GL1, peptide 1 mg/mL",-7.93
same,"Average cell viability, BEAS-2B",[2],100.86
same,"Cell viability, BEAS-2B, Data1",[2],99.70
same,"Cell viability, BEAS-2B, Data2",[2],103.89
same,"Cell viability, BEAS-2B, Data3",[2],99.00
same,"Average cell viability, HEK293T",[3],99.72
same,"Cell viability, HEK293T, Data1",[3],100.22
same,"Cell viability, HEK293T, Data2",[3],96.06
same,"Cell viability, HEK293T, Data3",[3],102.87
same,"Average cell viability, HPNE",[4],103.13
same,"Cell viability, HPNE, Data1",[4],83.76
same,"Cell viability, HPNE, Data2",[4],112.81
same,"Cell viability, HPNE, Data3",[4],112.81
same,"Average cell viability, HUVEC",[5],100.24
same,"Cell viability, HUVEC, Data1",[5],106.57
same,"Cell viability, HUVEC, Data2",[5],103.38
same,"Cell viability, HUVEC, Data3",[5],90.77
ILEEQ [TaPep29],Umami,[1]; peptide 0.1 mg/mL,1.81
same,Umami,[1]; peptide 1 mg/mL,-4.08
same,Bitter,"[1]; sensor C00, peptide 0.1 mg/mL",7.69
same,Bitter,"[1]; sensor C00, peptide 1 mg/mL",3.20
same,Sour,"[1]; sensor CA0, peptide 0.1 mg/mL",-3.61
same,Sour,"[1]; sensor CA0, peptide 1 mg/mL",10.60
same,Salty,"[1]; sensor CT0, peptide 0.1 mg/mL",-20.79
same,Salty,"[1]; sensor CT0, peptide 1 mg/mL",9.53
same,Sweet,"[1]; sensor GL1, peptide 0.1 mg/mL",7.74
same,Sweet,"[1]; sensor GL1, peptide 1 mg/mL",-5.49
same,"Average cell viability, BEAS-2B",[2],114.56
same,"Cell viability, BEAS-2B, Data1",[2],114.56
same,"Cell viability, BEAS-2B, Data2",[2],111.96
same,"Cell viability, BEAS-2B, Data3",[2],117.15
same,"Average cell viability, HEK293T",[3],100.41
same,"Cell viability, HEK293T, Data1",[3],100.88
same,"Cell viability, HEK293T, Data2",[3],96.44
same,"Cell viability, HEK293T, Data3",[3],103.91
same,"Average cell viability, HPNE",[4],96.81
same,"Cell viability, HPNE, Data1",[4],101.03
same,"Cell viability, HPNE, Data2",[4],96.44
same,"Cell viability, HPNE, Data3",[4],92.95
same,"Average cell viability, HUVEC",[5],98.96
same,"Cell viability, HUVEC, Data1",[5],93.24
same,"Cell viability, HUVEC, Data2",[5],109.93
same,"Cell viability, HUVEC, Data3",[5],93.72
KADGNR [TaPep4],Umami,[1]; peptide 0.1 mg/mL,1.35
same,Umami,[1]; peptide 1 mg/mL,-5.17
same,Bitter,"[1]; sensor C00, peptide 0.1 mg/mL",7.74
same,Bitter,"[1]; sensor C00, peptide 1 mg/mL",1.90
same,Sour,"[1]; sensor CA0, peptide 0.1 mg/mL",-2.92
same,Sour,"[1]; sensor CA0, peptide 1 mg/mL",13.79
same,Salty,"[1]; sensor CT0, peptide 0.1 mg/mL",-16.43
same,Salty,"[1]; sensor CT0, peptide 1 mg/mL",17.52
same,Sweet,"[1]; sensor GL1, peptide 0.1 mg/mL",4.21
same,Sweet,"[1]; sensor GL1, peptide 1 mg/mL",-5.50
same,"Average cell viability, BEAS-2B",[2],96.81
same,"Cell viability, BEAS-2B, Data1",[2],99.00
same,"Cell viability, BEAS-2B, Data2",[2],95.11
same,"Cell viability, BEAS-2B, Data3",[2],96.31
same,"Average cell viability, HEK293T",[3],102.74
same,"Cell viability, HEK293T, Data1",[3],102.11
same,"Cell viability, HEK293T, Data2",[3],102.49
same,"Cell viability, HEK293T, Data3",[3],103.63
same,"Average cell viability, HPNE",[4],97.84
same,"Cell viability, HPNE, Data1",[4],95.76
same,"Cell viability, HPNE, Data2",[4],97.39
same,"Cell viability, HPNE, Data3",[4],100.36
same,"Average cell viability, HUVEC",[5],105.16
same,"Cell viability, HUVEC, Data1",[5],113.12
same,"Cell viability, HUVEC, Data2",[5],102.98
same,"Cell viability, HUVEC, Data3",[5],99.39
